The target of assay [1] is T1, HiBit-KRAS^G12C (Homo sapiens, UniProt P01116, G12C). Description: HiBit degradation assay in SW1573 HiBit-KRas^G12C cells. It is filed as cell-based. Set-up: expressed in transfected cells; host or cells: SW1573 (clone E6), modified pcDNA3.1 vector, TK promoter. As to conditions: 24 hours. In a few lines:
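SW1573 cells stably expressing N-terminally HiBit-tagged KRAS G12C, under the TK promoter, were treated 24 h at 37 °C with 10 μM to 20 nM compound in 0.1% or 0.5% DMSO. Residual HiBit luminescence normalised to DMSO and fitted with a 4-parameter model for DC50 and Dmax. Points with ≥50% viability loss (alamar blue) excluded.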

In assay [2] the target is T1, HiBit-KRAS^G12C. The assay can be described thus: HiBit degradation assay in MiaPaCa-2 HiBit-KRas^G12C cells. It is filed as cell-based. As to conditions: 24 hours; for Dmax: maximum degradation. As for the experimental part: Reagents. SW1573 (CRL-2170) and MiaPaCa-2 (CRL-1420) cells were purchased from ATCC. Both cell lines are […] for the G12C mutation in KRAS. SW1573 cells were cultured in DMEM+F12+Glutamax (+Sodium Bicarbonate, +sodium pyruvate, Thermofisher scientific, #10565) supplemented with 10% FBS (Thermofisher scientific, #2060357) and 1% Antibiotic-Antimycotic (Thermofisher scientific, #15240096). MiaPaCa-2 cells were cultured in DMEM+Glutamax media (Thermofisher scientific, #10566) supplemented with 10% FBS (Thermofisher scientific, #2060357) and 1% Antibiotic-Antimycotic (Thermofisher scientific, #15240096). For degradation assays, 384 well plates were purchased from Corning (Corning® CellBIND® 384-well Flat Clear Bottom Black Polystyrene Microplates, Low Flange, #3770). Gambogic acid was purchased from Selleckchem (#S2448). Alamar blue was purchased from Thermofisher scientific (A50101) and used according to manufacturer instructions. The Nano-Glo® HiBit Lytic Detection System and Nano-Glo® HiBit Blotting System were purchased from Promega (#N3050 and #N2410) and used according to manufacturer instructions.
To create the MiaPaCa-2 HiBit-KRAS^G12C cell line, CRISPR-Cas9 was used to insert the HiBit tag onto the N-terminus of one or more of the four endogenous KRAS^G12C alleles. After knock-in of the tag, individual clones were isolated by single cell dilution and screened for HiBit insertion by PCR. Clones containing the HiBit tag were sequenced and one was identified that contained the desired HiBit-KRAS^G12C sequence at one allele while the remaining three KRAS^G12C alleles were unaffected. This line was used for all subsequent studies.
Either SW1573 HiBit-KRas^G12C or MiaPaCa-2 HiBit-KRas^G12C cells were plated at 9000 cells/well in a 384 well plate (Corning #3770). Exemplary heterobifunctional molecules and positive controls were diluted in the appropriate cell media and applied to the plated cells resulting in a final concentration titration of 10 μM to 20 nM in either 0.1% or 0.5% dimethyl sulfoxide (DMSO). Gambogic acid was used as a positive control for cytotoxicity and titrated from 10 μM to 78 nM. All assays were performed in triplicate. Cells were treated with compounds for 24 hours at 37° C. in an incubator containing 5% CO2. Following treatment, alamar blue was used to determine if any compounds led to a loss in cell viability after 24 hours. The 10× alamar blue reagent was added to a final concentration of 1× as recommended by the manufacturer and cells were returned to the incubator for 4 hours. Plates were then allowed to equilibrate to room temperature and fluorescence was measured using a Perkin-Elmer EnVision. After completion of the fluorescence read, the liquid from each well was removed and the cells were washed with PBS. The Nano-Glo® HiBiT detection reagent was prepared according to the manufacturer's instructions and added to each well after the PBS wash was removed. Following incubation at room temperature for 45 minutes, the luminescence was read using the ultra-sensitive luminescence aperture on the Envision instrument.
Fluorescence values from the alamar blue treatment were normalized to the DMSO only control for each compound titration. We hypothesized that compounds that led to a ≥50% loss in cell viability of the KRAS-independent SW1573 HiBit-KRas^G12C cells were likely generally cytotoxic and loss of HiBit-KRAS^G12C signal from these compounds may be due to lower cell number and not specific KRAS^G12C degradation. These points were therefore excluded from the data analysis for degradation. […]

The mark [3] stands for this setting: SW1573 HiBit-KRas^G12C, 0.1% DMSO, read-out: KRas^G12C-HIBit (SW1573; 0.1% DMSO) DC50*.
Setting [4] is: SW1573, SW1573 HiBit-KRas^G12C, 0.1% DMSO, read-out: KRas^G12C-HiBit (SW1573; 0.1% DMSO) Dmax**.
[5] abbreviates: read-out: KRas^G12C-HiBiT (MiaPaCa; 0.1% DMSO) IC50, MiaPaCa-2 HiBit-KRas^G12C cells, 0.1% DMSO.
Where [6] appears, read: read-out: KRas^G12C-HiBiT (SW1573; 0.5% DMSO) IC50***, SW1573 HiBit-KRas^G12C, 0.5% DMSO.
Setting [7] is: read-out: KRas^G12C-HiBiT (MiaPaCa; 0.5% DMSO) IC50, MiaPaCa-2 HiBit-KRas^G12C cells, 0.5% DMSO.

The source of these data is patent US20220370416A1, “COMPOUNDS AND METHODS FOR TARGETED DEGRADATION OF KRAS” (Arvinas Operations, Inc., priority 2020, published 2022).

T1 sequence (P01116 1-186 isoform P01116-2 G12C limits assumed): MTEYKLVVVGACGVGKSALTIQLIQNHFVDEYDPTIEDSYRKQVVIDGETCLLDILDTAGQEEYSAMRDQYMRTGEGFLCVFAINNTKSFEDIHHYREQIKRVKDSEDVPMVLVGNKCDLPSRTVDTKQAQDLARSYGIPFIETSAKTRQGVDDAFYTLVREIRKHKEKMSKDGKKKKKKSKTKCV

In the case of `C=CC(=O)N1CCN(c2nc(O[C@H](C)CN3CC(CN4CCN(CC(=O)N[C@H](C(=O)N5C[C@H](O)C[C@H]5C(=O)N[C@@H](C)c5ccc(-c6scnc6C)cc5)C(C)(C)C)CC4)C3)nc3c(F)c(-c4cc(O)cc5ccccc45)c(Cl)cc23)CC1` [Compound 59, (2S,4R)-1-[(2S)-2-{2-[4-({1-[(2R)-2-{[6-chloro-8-fluoro-7-(3-hydroxynaphthalen-1-yl)-4-[4-(prop-2-enoyl)piperazin-1-yl]quinazolin-2-yl]oxy}propyl]azetidin-3-yl}methyl)piperazin-1-yl]acetamido}-3,3-dimethylbutanoyl]-4-hydroxy-N-[(1S)-1-[4-(4-methyl-1,3-thiazol-5-yl)phenyl]ethyl]pyrrolidine-2-carboxamide], the Dmax in assay [1] (SW1573, read-out: KRas^G12C-HiBit (SW1573; 0.1% DMSO) Dmax**, SW1573 HiBit-KRas^G12C, 0.1% DMSO) is 35 to 70%; in assay [2] (MIA PaCa-2, read-out: KRas^G12C-HiBiT (MiaPaCa; 0.1% DMSO) DMax, MiaPaCa-2 HiBit-KRas^G12C cells, 0.1% DMSO) it was less than 35%. Also, the DC50 in assay [1] (setting [3]) is more than 1 µM.
Regarding `C=CC(=O)N1CCN(c2nc(O[C@H](C)CN3CCC(C(=O)N[C@H](C(=O)N4C[C@H](O)C[C@H]4C(=O)N[C@@H](C)c4ccc(-c5scnc5C)cc4)C(C)(C)C)CC3)nc3c(F)c(-c4cc(O)cc5ccccc45)c(Cl)cc23)CC1` [Compound 34, 1-[(2R)-2-{[6-chloro-8-fluoro-7-(3-hydroxynaphthalen-1-yl)-4-[4-(prop-2-enoyl)piperazin-1-yl]quinazolin-2-yl]oxy}propyl]-N-[(2S)-1-[(2S,4R)-4-hydroxy-2-{[(1S)-1-[4-(4-methyl-1,3-thiazol-5-yl)phenyl]ethyl]carbamoyl}pyrrolidin-1-yl]-3,3-dimethyl-1-oxobutan-2-yl]piperidine-4-carboxamide], the Dmax in assay [1] (setting [4]) is less than 35%. Besides, the DC50 in assay [1] (setting [3]) is 0.1 to 1 µM; in assay [2] (setting [5]) it was more than 1 µM.
In the case of `C=C(F)C(=O)N1CCN(c2nc(OCCN3CCC(COc4cc([C@H](C(=O)N5C[C@H](O)C[C@H]5C(=O)N[C@@H](C)c5ccc(-c6ccnn6C)cc5)C(C)C)on4)CC3)nc3c(F)c(-c4cc(O)cc5ccccc45)c(Cl)cc23)C[C@@H]1CC#N` [Compound 156, (2S,4R)-1-[(2R)-2-[3-({1-[2-({6-chloro-4-[(3S)-3-(cyanomethyl)-4-(2-fluoroprop-2-enoyl)piperazin-1-yl]-8-fluoro-7-(3-hydroxynaphthalen-1-yl)quinazolin-2-yl}oxy)ethyl]piperidin-4-yl}methoxy)-1,2-oxazol-5-yl]-3-methylbutanoyl]-4-hydroxy-N-[(1S)-1-[4-(1-methyl-1H-pyrazol-5-yl)phenyl]ethyl]pyrrolidine-2-carboxamide], the values for the DC50 in assay [1] (setting [6]) and in assay [2] (setting [7]) were less than 0.1 µM and 0.1 to 1 µM, respectively.
For `C=C(F)C(=O)N1CCN(c2nc(OCCN3CCC4(CC3)CN(c3cc([C@@H](C(=O)N5C[C@H](O)C[C@H]5C(=O)N[C@@H](C)c5ccc(-c6ccnn6C)cc5)C(C)C)on3)C4)nc3c(F)c(-c4cc(O)cc5ccccc45)c(Cl)cc23)C[C@@H]1CC#N` (atropisomer, axis not shown) [Compound 103, (2S,4R)-1-[(2S)-2-(3-{7-[2-({6-chloro-4-[(3S)-3-(cyanomethyl)-4-(2-fluoroprop-2-enoyl)piperazin-1-yl]-8-fluoro-7-(3-hydroxynaphthalen-1-yl)quinazolin-2-yl}oxy)ethyl]-2,7-diazaspiro[3.5]nonan-2-yl}-1,2-oxazol-5-yl)-3-methylbutanoyl]-4-hydroxy-N-[(1S)-1-[4-(1-methyl-1H-pyrazol-5-yl)phenyl]ethyl]pyrrolidine-2-carboxamide], in that order: 0.1 to 1 µM and more than 1 µM.
On to `C=CC(=O)N1CCN(c2nc(OCCN3CCC(OCCOCC(=O)N[C@H](C(=O)N4C[C@H](O)C[C@H]4C(=O)N[C@@H](C)c4ccc(-c5scnc5C)cc4)C(C)(C)C)CC3)nc3c(F)c(-c4cc(O)cc5ccccc45)c(Cl)cc23)CC1` [Compound 66, (2S,4R)-1-[(2S)-2-[2-(2-{[1-(2-{[6-chloro-8-fluoro-7-(3-hydroxynaphthalen-1-yl)-4-[4-(prop-2-enoyl)piperazin-1-yl]quinazolin-2-yl]oxy}ethyl)piperidin-4-yl]oxy}ethoxy)acetamido]-3,3-dimethylbutanoyl]-4-hydroxy-N-[(1S)-1-[4-(4-methyl-1,3-thiazol-5-yl)phenyl]ethyl]pyrrolidine-2-carboxamide], for which the Dmax in assay [1] (setting [4]) is 35 to 70%; in assay [1] (SW1573, SW1573 HiBit-KRas^G12C, 0.5% DMSO, read-out: KRas^G12C-HiBiT (SW1573; 0.5% DMSO) Dmax**) it was 35 to 70%; in assay [2] (MIA PaCa-2, MiaPaCa-2 HiBit-KRas^G12C cells, 0.1% DMSO, read-out: KRas^G12C-HiBiT (MiaPaCa; 0.1% DMSO) DMax), less than 35%; in assay [2] (MIA PaCa-2, MiaPaCa-2 HiBit-KRas^G12C cells, 0.5% DMSO, read-out: KRas^G12C-HiBiT (MiaPaCa; 0.5% DMSO) DMax), 35 to 70%. Further, the DC50 in assay [1] (setting [3]) fell in the range of 0.1 to 1 µM.
As to `C=CC(=O)N1CCN(c2nc(O[C@H](C)CN3CCC(OCCOCCOCCOc4cc(-c5scnc5C)ccc4CNC(=O)[C@@H]4C[C@@H](O)CN4C(=O)[C@H](c4cc(C)no4)C(C)C)CC3)nc3c(F)c(-c4cc(O)cc5ccccc45)c(Cl)cc23)CC1` [Compound 69, (2S,4R)-N-{[2-(2-{2-[2-({1-[(2R)-2-{[6-chloro-8-fluoro-7-(3-hydroxynaphthalen-1-yl)-4-[4-(prop-2-enoyl)piperazin-1-yl]quinazolin-2-yl]oxy}propyl]piperidin-4-yl}oxy)ethoxy]ethoxy}ethoxy)-4-(4-methyl-1,3-thiazol-5-yl)phenyl]methyl}-4-hydroxy-1-[(2S)-3-methyl-2-(3-methyl-1,2-oxazol-5-yl)butanoyl]pyrrolidine-2-carboxamide], the Dmax in assay [1] (setting [4]) lay within 35 to 70%. Moreover, the DC50 in assay [1] (setting [3]) is 0.1 to 1 µM; in assay [2] (setting [5]) it was more than 1 µM.
